From patent US9233095B2, “Small molecule RNase inhibitors and methods of use” (University of Rochester, priority 2011, dated 2016)

Assays:
[1] = system: S. aureus (MSSA); assay: CLSI broth microdilution MIC; format: cell-based, Staphylococcus aureus; conditions: strain UAMS-1, the strain's MIC used for time-kill assays
Excerpt: In some examples, compounds can be further assayed using the Mueller Hinton (MH) broth antibacterial assay as specified by the Clinical and Laboratory Standards Institute MIC broth microdilution protocol (see Methods for Dilution Antimicrobial Susceptibility Tests for Bacteria That Grow Aerobically; Approved Standard, In The Clinical and Laboratory Standards Institute (CLSI, formerly NCCLS), 7th ed., January 2006, 26 (2), M7-A7; see also Performance Standards for Antimicrobial Susceptibility Testing; Eighteenth Informational Supplement, In The Clinical and Laboratory Standards Institute (CLSI, formerly NCCLS), January 2008, 28 (1), M100-S18).
With the exception of RN4220-derivatives, in vitro activities of RNPA1000 against bacteria were determined by the broth microdilution method according to the Clinical and Laboratory Standards Institute (CLSI) guidelines using cation adjusted Mueller-Hinton broth or MH broth supplemented with 5% lysed horse blood (for testing Streptotococcus spp.). Microtiter plates containing serial dilutions of RNPA1000 (0, 4, 8, 16, 32, 64, and 128 μg/ml) were inoculated with 10^5 colony forming units (CFU)/ml and incubated for 18 hr at 37° C. […] The MIC value for each S. aureus strain was determined to be the median score of replicate measurements (n=5). Wells containing concentrations of RNPA1000≧MIC were plated for minimal bactericidal measurement. Where possible, experiments with VRSA strains were performed in a laminar flow hood to minimize potential for equipment contamination. For RN4220 cells containing plasmid vector (pCN51), RnpA overproducing plasmid (pRNPA-S) or RnpA underproducing plasmid (pRNPA-A.S.) in vitro antimicrobial activity of RNPA1000 was performed by the microdilution method as described above, except that cells were grown in Tryptic Soy Broth medium supplemented with 2.5 μM CdCl2 and 0, 1, 2, 4, 8, 16, 32, 64, or 128 μg/ml RNPA1000. Time-kill assays were also performed to monitor the antimicrobial properties of RNPA1000 for S. aureus strain UAMS-1 in the absence and presence of 0.25, 0.5, 2, and 4 times the strain's MIC for oxacillin (1 μg/ml), rifampicin (0.5 μg/ml), vancomycin (2 μg/ml), or daptomycin (1 μg/ml). The indicated amount of RNPA1000 and/or commercial antibiotic were added to mid-exponential phase (2×10^8 cfu/ml) S. aureus strain UAMS-1 cells and incubated at 37° C. Aliquots were removed at 0, 2, 4, 8, and 24 hr post-antimicrobial challenge, serial diluted, and plated to enumerate resulting cfu/ml. All time-kill assays were repeated at least 3 times.

[2] = system: biofilm-associated S. aureus strain UAMS-1; conditions: Weiss et al. 2009, cited from earlier work; for clearance of biofilm-associated S. aureus: 20× MIC over 3 days; for maximal decrease in biofilm-associated bacteria: same model and conditions
[3] = system: S. aureus strain Smith; assay: acute lethal model of infection; format: in vivo, CD-1 mice; conditions: 5 days
Protocol: Because RNPA1000 was not toxic during short- and only mildly toxic during extended-HepG2 exposure, it could serve as an appropriate tool to assess whether RnpA-inhibitory molecules are efficacious in a systemic mouse infection model. […] RNPA1000 was solubilized in 1:1 mixture of DMSO and PEG400; Vancomycin was prepared in water. Animals (5/dose group) were administered 16, 64, and 256 mg/kg or 0.25, 1, 4, and 16 mg/kg of RNPA1000 or Vancomycin, respectively, at 30 min post infection by subcutaneous injection (0.2 ml). The percent surviving animals receiving no treatment, a single dose of Vancomycin, or RnpA-inhibitor was recorded daily over the course of the study (5 days).
Percent survival refers to a consensus of surviving animals following 5 days post-intraperitoneal S. aureus injection and RNPA1000 administration. The number in parentheses indicates the number of times the experiment was repeated. Each member of non-treated control mice expired within 24 hr bacterial inoculation (0 mg/kg). Vancomycin served as a positive control.

Compound | MIC of commercial antibiotic [1] [µg/mL] | clearance of biofilm-associated S. aureus [2] | maximal decrease in biofilm-associated bacteria [2] [log] | % Survival ([3]; Vancomycin 0.25 mg/kg s.c.) [%] | % Survival ([3]; Vancomycin 1 mg/kg s.c.) [%] | % Survival ([3]; Vancomycin 4 mg/kg s.c.) [%] | % Survival ([3]; Vancomycin 16 mg/kg s.c.) [%]
CN[C@H](CC(C)C)C(=O)N[C@H]1C(=O)N[C@@H](CC(N)=O)C(=O)N[C@H]2C(=O)N[C@H]3C(=O)N[C@H](C(=O)N[C@H](C(=O)O)c4cc(O)cc(O)c4-c4cc3ccc4O)[C@H](O)c3ccc(c(Cl)c3)Oc3cc2cc(c3O[C@@H]2O[C@H](CO)[C@@H](O)[C@H](O)[C@H]2O[C@H]2C[C@](C)(N)[C@H](O)[C@H](C)O2)Oc2ccc(cc2Cl)[C@H]1O [Vancomycin, vancomycin, reference compound] | 2 | none of these antibiotics cleared | 4 | 0 | 100 | 100 | 100
CC(=O)NC[C@H]1CN(c2ccc(N3CCOCC3)c(F)c2)C(=O)O1 [linezolid] | – | none of these antibiotics cleared | 5 | – | – | – | –
Cc1onc(-c2ccccc2)c1C(=O)N[C@@H]1C(=O)N2[C@@H]1SC(C)(C)[C@@H]2C(=O)O [oxacillin] | 1 | – | – | – | – | – | –
CO[C@H]1/C=C/O[C@@]2(C)Oc3c(C)c(O)c4c(O)c(c(/C=N/N5CCN(C)CC5)c(O)c4c3C2=O)NC(=O)/C(C)=C\C=C\[C@H](C)[C@H](O)[C@@H](C)[C@@H](O)[C@@H](C)[C@H](OC(C)=O)[C@@H]1C [rifampicin] | 0.5 | – | – | – | – | – | –
CCCCCCCCCC(=O)N[C@@H](Cc1c[nH]c2ccccc12)C(=O)N[C@H](CC(N)=O)C(=O)N[C@@H](CC(=O)O)C(=O)N[C@@H]1C(=O)NCC(=O)N[C@@H](CCCN)C(=O)N[C@@H](CC(=O)O)C(=O)N[C@H](C)C(=O)N[C@@H](CC(=O)O)C(=O)NCC(=O)N[C@H](CO)C(=O)N[C@@H]([C@H](C)CC(=O)O)C(=O)N[C@@H](CC(=O)c2ccccc2N)C(=O)O[C@@H]1C [daptomycin] | 1 | none of these antibiotics cleared | 6 | – | – | – | –
